The text below walks through data of ChEMBL document CHEMBL1201862, “PubChem BioAssay data set” (2004).

For orientation: AC50 means the concentration at which the activity in the assay is half-maximal. One may read the EC50 as the midpoint of the concentration-response curve. By Ki is commonly meant the equilibrium dissociation constant of an inhibitor or competing ligand from its target.

Molecules are shown by their SMILES. The source made the active and inactive calls.

Test [1] in a line: bead-based luminescence quenchers, dual-tagged ARNT – biochemical, AlphaScreen, cherry-pick, artefact control for ARNT-TACC3 interaction inhibitor project, dose response (AID 651705).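 Also: AlphaScreen bead proximity signal that flags compounds interfering with the detection technology; potency reflects signal decrease which marks the compound as an assay artifact.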 It is filed as functional. (In general: In Alpha technology, singlet oxygen from a donor bead excites a nearby acceptor bead.)
The target of test [2] is T1, Caspase-3 (Homo sapiens, UniProt P42574).
T1 sequence (P42574 whole entry): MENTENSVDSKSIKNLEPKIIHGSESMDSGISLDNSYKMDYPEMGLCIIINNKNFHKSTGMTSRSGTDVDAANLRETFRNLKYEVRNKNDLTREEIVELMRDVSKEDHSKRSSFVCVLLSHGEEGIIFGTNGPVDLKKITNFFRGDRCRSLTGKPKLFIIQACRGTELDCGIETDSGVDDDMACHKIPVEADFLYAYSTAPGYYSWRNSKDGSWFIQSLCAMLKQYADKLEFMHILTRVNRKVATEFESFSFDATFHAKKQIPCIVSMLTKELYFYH
As to the kind of experiment: SAR Analysis of small molecule inhibitors of Sentrin-specific proteases (SENPs) using a Caspase-3 Selectivity assay. [Related pubchem assays (depositor defined):AID2540, AID2599, AID434973, AID489001]. It is filed as functional.

Test [3] addresses T2, Sentrin-specific protease 6 (Homo sapiens, UniProt Q9GZR1).
T2 sequence (Q9GZR1 whole entry): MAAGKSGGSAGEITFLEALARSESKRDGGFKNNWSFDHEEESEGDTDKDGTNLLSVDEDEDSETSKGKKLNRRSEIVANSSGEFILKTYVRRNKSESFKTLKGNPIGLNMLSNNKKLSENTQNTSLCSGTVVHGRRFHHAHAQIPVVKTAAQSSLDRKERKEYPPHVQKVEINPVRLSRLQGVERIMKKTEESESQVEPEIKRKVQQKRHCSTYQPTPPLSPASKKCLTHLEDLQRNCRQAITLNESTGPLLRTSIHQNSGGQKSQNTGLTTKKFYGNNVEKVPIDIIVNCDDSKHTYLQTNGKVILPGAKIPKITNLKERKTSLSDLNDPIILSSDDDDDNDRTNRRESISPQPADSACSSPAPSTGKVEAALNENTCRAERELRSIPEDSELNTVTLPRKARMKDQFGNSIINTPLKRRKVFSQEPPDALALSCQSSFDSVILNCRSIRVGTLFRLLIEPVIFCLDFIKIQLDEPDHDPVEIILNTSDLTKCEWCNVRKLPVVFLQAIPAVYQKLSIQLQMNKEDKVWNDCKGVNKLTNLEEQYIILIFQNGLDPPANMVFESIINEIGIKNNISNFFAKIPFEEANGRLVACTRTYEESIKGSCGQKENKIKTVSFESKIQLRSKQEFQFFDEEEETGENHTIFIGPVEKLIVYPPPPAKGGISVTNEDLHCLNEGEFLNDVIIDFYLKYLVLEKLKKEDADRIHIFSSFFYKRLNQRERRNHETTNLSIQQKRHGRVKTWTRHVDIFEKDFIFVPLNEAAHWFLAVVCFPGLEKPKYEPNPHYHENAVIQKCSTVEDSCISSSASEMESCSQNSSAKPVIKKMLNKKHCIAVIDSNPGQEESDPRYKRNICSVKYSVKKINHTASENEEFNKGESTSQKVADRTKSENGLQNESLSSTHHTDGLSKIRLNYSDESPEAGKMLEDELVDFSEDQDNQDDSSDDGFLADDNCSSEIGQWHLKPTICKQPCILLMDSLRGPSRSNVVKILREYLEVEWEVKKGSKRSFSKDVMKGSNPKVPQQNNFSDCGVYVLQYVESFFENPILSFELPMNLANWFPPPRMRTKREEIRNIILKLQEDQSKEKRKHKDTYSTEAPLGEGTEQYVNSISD
Put plainly: SAR Analysis of small molecule inhibitors of Sentrin-specific protease 6 (SENP6) using a Luminescent assay. [Related pubchem assays (depositor defined):AID2582, AID2599]. The format is functional.

Test [4] deals with T3, Sentrin-specific protease 7 (Homo sapiens, UniProt Q9BQF6).
T3 sequence (Q9BQF6 whole entry): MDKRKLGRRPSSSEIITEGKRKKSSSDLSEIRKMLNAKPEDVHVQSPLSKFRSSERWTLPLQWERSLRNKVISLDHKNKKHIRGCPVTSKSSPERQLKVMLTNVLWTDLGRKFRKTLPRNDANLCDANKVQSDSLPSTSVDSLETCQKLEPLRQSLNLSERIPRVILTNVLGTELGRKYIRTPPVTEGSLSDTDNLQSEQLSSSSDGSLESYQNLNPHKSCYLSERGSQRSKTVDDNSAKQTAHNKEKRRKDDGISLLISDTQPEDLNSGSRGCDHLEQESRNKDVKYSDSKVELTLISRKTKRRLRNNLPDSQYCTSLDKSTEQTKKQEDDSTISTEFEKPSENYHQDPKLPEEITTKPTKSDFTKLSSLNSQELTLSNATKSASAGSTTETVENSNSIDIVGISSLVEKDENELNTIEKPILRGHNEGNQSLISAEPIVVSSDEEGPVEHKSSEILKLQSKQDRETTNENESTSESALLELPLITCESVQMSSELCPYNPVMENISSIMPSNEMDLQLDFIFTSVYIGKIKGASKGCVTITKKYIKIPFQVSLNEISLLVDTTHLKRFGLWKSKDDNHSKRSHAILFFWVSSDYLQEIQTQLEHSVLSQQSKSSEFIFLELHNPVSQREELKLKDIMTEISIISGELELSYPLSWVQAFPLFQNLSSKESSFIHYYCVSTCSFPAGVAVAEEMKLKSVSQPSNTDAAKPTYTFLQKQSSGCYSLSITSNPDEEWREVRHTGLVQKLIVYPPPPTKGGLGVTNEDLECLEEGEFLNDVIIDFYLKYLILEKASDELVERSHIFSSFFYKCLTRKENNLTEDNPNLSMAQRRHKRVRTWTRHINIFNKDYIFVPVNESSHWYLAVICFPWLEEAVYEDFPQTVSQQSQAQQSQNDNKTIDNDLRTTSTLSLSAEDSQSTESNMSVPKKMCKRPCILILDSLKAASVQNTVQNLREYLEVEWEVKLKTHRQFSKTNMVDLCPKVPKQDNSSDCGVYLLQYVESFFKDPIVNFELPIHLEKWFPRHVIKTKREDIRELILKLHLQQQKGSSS
Put plainly: inhibition of human SENP7 cleavage activity – biochemical, luminescence, SAR follow-up (AID 504497). It is filed as functional.

Test [5] deals with T2, Sentrin-specific protease 6. The format is functional.
Test [6] addresses T1, Caspase-3. It is filed as functional.
For test [7], the target named is T4, Sentrin-specific protease 8 (Homo sapiens, UniProt Q96LD8).
T4 sequence (Q96LD8 whole entry): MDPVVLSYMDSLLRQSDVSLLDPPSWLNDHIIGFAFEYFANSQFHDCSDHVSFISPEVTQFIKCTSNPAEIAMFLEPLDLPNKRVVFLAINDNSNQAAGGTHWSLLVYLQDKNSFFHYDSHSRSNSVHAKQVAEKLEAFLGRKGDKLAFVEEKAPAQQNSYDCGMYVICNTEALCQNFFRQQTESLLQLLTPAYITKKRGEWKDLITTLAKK
It is filed as functional.

In test [8] the target is T5, Oxysterols receptor LXR-beta (Homo sapiens, UniProt P55055).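 Also: agonist activity at LXR measured by a cell-based luminescence readout across a dose range, run as a counterscreen for daf-12 agonists; HEK293 cells with Gal4-LXR fusion and GAL4-driven luciferase reporter; potency for activation of Gal4-LXR reporter so compounds are agonists.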
T5 sequence (P55055 whole entry): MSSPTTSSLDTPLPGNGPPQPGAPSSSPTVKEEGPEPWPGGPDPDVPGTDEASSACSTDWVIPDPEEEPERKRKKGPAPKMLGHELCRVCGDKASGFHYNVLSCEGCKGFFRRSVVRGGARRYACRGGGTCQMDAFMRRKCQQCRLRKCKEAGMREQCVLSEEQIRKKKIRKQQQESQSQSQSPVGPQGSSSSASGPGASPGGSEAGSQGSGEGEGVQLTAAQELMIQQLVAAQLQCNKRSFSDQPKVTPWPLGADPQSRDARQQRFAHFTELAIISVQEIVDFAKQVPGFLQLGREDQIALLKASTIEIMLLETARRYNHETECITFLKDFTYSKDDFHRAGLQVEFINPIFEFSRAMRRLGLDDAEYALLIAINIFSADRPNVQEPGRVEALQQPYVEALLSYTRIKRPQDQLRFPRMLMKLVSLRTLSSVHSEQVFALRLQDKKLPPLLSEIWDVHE
The format is functional, cell-based.

Test [9] addresses T3, Sentrin-specific protease 7. It is filed as functional.
Test [10] has as its target T4, Sentrin-specific protease 8. Put plainly: inhibition of human SENP8 cleavage activity – biochemical, luminescence, SAR follow-up (AID 504501). The format is functional.
Test [11] addresses T6, High affinity choline transporter 1 (Homo sapiens, UniProt Q9GZV3).
T6 sequence (Q9GZV3 whole entry): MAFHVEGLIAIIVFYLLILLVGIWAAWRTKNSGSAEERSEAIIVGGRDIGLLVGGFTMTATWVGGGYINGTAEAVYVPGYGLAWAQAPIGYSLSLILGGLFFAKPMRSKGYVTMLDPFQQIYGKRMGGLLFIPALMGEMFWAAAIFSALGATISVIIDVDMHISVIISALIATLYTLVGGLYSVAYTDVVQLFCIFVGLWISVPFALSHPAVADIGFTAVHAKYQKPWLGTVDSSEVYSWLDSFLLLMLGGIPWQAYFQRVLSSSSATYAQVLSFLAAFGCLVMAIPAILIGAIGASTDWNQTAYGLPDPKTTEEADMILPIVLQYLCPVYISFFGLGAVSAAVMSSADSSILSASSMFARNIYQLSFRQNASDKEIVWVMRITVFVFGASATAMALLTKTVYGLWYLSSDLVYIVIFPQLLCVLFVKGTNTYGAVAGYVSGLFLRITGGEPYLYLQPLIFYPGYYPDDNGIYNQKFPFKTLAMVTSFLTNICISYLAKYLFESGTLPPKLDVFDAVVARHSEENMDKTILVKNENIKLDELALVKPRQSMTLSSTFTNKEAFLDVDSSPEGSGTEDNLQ
Put plainly: human choline transporter blockers, potency – cell-based, 10-point CRC, membrane potential dye, dose response (AID 588401).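 Also: membrane potential dye fluorescence of choline-evoked depolarization via CHT.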 It is filed as functional.

Test [12] addresses T6, High affinity choline transporter 1. Put plainly: human choline transporter blockers, potency – cell-based, 5-point CRC, membrane potential dye, dose response (AID 504840). The format is functional.
The target is the same in test [13]. Put plainly: human choline transporter radiolabel uptake blockers – cell-based, 3H-choline uptake, CHT LV-AA trafficking mutant, CRC, dose response (AID 602208). The format is functional.
For test [14], the target named is Adenosylmethionine-8-amino-7-oxononanoate aminotransferase (Mycobacterium tuberculosis, UniProt P9WQ81). Put plainly: Mycobacterium tuberculosis BioA enzyme inhibitor Measured in Biochemical System Using Plate Reader - 2163-02_Inhibitor_Dose_CherryPick_Activity. The format is functional, Mycobacterium tuberculosis UT205.
Adenosylmethionine-8-amino-7-oxononanoate aminotransferase, sequence (P9WQ81 whole entry): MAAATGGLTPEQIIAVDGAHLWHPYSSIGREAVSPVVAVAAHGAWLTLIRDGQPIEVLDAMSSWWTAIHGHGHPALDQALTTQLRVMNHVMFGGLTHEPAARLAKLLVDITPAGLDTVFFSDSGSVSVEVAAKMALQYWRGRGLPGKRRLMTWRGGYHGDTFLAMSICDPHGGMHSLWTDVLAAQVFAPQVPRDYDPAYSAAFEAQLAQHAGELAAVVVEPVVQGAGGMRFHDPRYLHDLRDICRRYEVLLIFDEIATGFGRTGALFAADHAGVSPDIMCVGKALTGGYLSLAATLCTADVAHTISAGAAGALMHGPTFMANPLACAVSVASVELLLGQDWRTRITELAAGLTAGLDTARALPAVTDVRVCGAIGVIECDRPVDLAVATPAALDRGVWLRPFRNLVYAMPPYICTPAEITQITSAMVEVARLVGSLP
For test [15], the target named is Ras and Rab interactor 1/Tyrosine-protein kinase ABL1 (Homo sapiens, UniProt P00519+Q13671). The format is functional.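 Also: biochemical TR-FRET dose-response test measuring inhibition of binding between Rin1 and Abl proteins.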
Ras and Rab interactor 1/Tyrosine-protein kinase ABL1, sequence (P00519 whole entry): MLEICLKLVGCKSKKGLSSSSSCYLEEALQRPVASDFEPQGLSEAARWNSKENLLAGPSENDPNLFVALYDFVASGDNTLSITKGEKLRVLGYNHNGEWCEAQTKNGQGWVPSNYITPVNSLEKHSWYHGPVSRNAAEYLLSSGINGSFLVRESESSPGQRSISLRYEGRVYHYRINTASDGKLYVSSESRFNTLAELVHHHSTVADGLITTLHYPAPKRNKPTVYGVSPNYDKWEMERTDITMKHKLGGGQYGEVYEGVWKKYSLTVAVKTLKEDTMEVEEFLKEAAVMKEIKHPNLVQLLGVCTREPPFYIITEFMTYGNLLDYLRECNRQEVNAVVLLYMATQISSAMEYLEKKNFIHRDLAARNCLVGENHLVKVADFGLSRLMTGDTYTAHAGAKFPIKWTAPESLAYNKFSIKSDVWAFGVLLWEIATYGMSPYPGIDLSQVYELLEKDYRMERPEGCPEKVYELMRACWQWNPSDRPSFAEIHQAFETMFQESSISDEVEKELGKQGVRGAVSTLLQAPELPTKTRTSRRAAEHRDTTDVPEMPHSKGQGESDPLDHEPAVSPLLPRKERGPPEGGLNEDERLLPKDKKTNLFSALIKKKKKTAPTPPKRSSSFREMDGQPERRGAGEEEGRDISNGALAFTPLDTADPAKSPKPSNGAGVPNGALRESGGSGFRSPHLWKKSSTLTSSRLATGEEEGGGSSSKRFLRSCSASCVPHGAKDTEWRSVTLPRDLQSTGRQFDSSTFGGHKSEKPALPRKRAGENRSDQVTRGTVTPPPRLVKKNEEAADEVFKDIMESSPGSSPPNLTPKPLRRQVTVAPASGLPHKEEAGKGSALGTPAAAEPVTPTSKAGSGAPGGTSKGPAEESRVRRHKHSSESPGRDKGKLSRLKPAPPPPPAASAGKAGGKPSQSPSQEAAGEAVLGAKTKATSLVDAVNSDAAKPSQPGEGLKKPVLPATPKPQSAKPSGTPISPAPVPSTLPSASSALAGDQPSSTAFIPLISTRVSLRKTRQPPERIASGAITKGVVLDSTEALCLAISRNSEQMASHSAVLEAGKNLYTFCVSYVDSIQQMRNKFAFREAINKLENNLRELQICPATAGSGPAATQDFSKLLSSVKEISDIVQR
Ras and Rab interactor 1/Tyrosine-protein kinase ABL1, sequence (Q13671 whole entry): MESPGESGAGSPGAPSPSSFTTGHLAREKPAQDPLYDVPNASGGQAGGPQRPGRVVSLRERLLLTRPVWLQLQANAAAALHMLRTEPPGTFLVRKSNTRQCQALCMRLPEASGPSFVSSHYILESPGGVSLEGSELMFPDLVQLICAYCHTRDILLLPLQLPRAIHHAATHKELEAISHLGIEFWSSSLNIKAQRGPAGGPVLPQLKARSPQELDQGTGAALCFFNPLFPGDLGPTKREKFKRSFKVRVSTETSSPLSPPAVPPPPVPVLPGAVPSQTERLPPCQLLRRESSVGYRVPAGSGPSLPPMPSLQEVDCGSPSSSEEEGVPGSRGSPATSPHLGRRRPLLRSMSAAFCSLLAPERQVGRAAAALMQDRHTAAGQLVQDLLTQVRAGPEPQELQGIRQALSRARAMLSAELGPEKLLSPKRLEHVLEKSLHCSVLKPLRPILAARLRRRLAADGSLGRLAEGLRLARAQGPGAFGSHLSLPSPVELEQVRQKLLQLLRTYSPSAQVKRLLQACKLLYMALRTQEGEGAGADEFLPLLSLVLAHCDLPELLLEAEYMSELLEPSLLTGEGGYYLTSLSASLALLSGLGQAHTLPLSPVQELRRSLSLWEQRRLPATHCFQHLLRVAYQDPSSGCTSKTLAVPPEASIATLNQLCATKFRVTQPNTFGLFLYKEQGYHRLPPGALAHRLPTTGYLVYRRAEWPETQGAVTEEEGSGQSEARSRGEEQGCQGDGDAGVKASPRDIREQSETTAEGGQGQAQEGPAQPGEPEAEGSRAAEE
For test [16], the target named is T7, Interleukin-8 (Homo sapiens, UniProt P10145). As to the kind of experiment: Dose Response confirmation of uHTS small molecule hits for cystic fibrosis induced NFkb Inhibitors in a PAF-induced IL8 counterscreen. It is filed as functional. Particulars: read-out: IC50_Mean. (Counterscreens check selectivity or assay interference.)
T7 sequence (P10145 whole entry): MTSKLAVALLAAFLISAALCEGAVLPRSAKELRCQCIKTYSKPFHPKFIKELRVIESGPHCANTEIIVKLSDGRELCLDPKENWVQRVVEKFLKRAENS
For test [17], the target named is T7, Interleukin-8. As to the kind of experiment: Dose Response confirmation of uHTS small molecule hits for cystic fibrosis induced NFkb Inhibitors in a TNFa-induced IL8 counterscreen. It is filed as functional. To be noted: read-out: IC50_Mean.
Test [18] addresses Cyclin-dependent kinase 19 (Homo sapiens, UniProt Q9BWU1). As to the kind of experiment: Navigating the Kinome. Panel member name: CDC2L6. It is filed as functional.
Test [19] addresses Aurora kinase A (Homo sapiens, UniProt O14965). It is filed as functional.
Test [20] addresses T8, Mitochondrial peptide methionine sulfoxide reductase (Bos taurus, UniProt P54149).
T8 sequence (P54149 whole entry): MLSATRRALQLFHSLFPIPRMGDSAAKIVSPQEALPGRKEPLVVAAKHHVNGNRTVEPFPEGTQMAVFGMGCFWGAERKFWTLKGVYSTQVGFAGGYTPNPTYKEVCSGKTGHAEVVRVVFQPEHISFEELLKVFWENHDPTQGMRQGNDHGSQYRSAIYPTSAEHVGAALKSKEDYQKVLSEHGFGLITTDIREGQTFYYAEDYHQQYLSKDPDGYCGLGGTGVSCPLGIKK
The format is functional.

Aurora kinase A, sequence (O14965 whole entry): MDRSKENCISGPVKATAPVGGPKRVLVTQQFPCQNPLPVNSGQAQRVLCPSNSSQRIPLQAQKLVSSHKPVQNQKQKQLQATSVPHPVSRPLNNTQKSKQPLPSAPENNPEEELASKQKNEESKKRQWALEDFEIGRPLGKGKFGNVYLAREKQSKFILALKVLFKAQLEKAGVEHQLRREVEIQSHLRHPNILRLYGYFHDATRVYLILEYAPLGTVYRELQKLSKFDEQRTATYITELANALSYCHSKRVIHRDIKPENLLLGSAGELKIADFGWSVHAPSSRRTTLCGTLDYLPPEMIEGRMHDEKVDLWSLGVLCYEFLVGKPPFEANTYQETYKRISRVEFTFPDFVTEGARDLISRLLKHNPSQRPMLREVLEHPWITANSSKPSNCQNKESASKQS
Cyclin-dependent kinase 19, sequence (Q9BWU1 whole entry): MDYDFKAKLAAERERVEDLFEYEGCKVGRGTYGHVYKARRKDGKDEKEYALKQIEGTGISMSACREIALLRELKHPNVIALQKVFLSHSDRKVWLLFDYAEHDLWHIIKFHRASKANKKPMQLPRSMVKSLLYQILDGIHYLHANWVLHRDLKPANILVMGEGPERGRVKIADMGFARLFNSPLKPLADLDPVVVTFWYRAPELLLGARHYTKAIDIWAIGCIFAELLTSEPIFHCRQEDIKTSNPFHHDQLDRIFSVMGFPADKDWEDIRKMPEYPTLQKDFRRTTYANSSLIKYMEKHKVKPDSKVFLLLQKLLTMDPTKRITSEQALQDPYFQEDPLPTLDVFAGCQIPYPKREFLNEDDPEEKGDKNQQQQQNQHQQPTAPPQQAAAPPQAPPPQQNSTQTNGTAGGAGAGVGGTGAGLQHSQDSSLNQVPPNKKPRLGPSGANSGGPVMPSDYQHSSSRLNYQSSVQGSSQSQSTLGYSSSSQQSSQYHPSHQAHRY

With `O=C(Oc1cccc2cccnc12)c1ccco1`, in test [1], the AC50 is 131 µM (active).

Turning to `c1ccc(Nc2nc(-c3ccccc3)ns2)cc1`, the IC50 is 7.8 µM (active) in [2]; 1.9 µM (active) in test [3]; 1.7 µM (active) in test [4]; 2.19 µM (active) in test [5]; 18.8 µM (active) in test [6]; 2.41 µM (active) in test [7]. Besides, the IC50 in [9] is 2.1 µM (active); in [10], 2.5 µM (active). Moreover, in test [8], the EC50 was > 67.6 µM (inactive).

In the case of `CC1CCC(NC(=O)c2cccc(S(=O)(=O)NCc3ccccc3)c2)CC1` (stereo not given), the IC50 in test [11] is 3.64 µM (active); in test [12] it was 4.07 µM (active); in [13], 8.42 µM (active).

Consider `COc1ccc(-c2ccc3c(c2)C2CC3CCN2)cc1` (stereo not given), for which the AC50 in [14] is 1.07 µM (active).

As for `CC(C)(C)OC(=O)N1CCC(C(=O)Nc2ccc(C(=O)N3CCCCC3)cc2)CC1`, in test [15], the IC50 was 21.9 µM (inactive).

On to `CNc1ccc2ncc(-c3cccc(C(=O)N(C)C)c3)n2n1`, for which the IC50 is 2.04 µM (active) in test [16] and > 79 µM (inactive) in [17].

Consider `Cc1ccc(C)c(NC(=O)Nc2ccc(-c3c(C)sc4ncnc(N)c34)cc2)c1`, for which the values for the Ki in [18] and in [19] were > 100 µM (inactive) and 0.251 µM (active), respectively.

Take `O=C(O)c1cccc(N/N=C/c2sc(N3CCOCC3)nc2-c2ccccc2)c1`: the IC50 in test [20] was 155 µM (inactive).
